Tests used:
[1] = Inhibition of PI3K in human MCF7 cells assessed as reduction in AKT phosphorylation at residue S473 incubated for 2 hrs followed by insulin addition by ELISA; assay type: cell-based; settings: MCF7, 2 h
[2] = target: Phosphatidylinositol 4,5-bisphosphate 3-kinase catalytic subunit alpha isoform (Homo sapiens, UniProt P42336); assay: Inhibition of PI3Kalpha (unknown origin) using PIP2:3PS peptide as substrate preincubated for 15 mins followed by ATP addition at Km concentration and further incubated for 150 mins by ADP-Glo assay
Sequence of Phosphatidylinositol 4,5-bisphosphate 3-kinase catalytic subunit alpha isoform (P42336 whole entry, canonical isoform): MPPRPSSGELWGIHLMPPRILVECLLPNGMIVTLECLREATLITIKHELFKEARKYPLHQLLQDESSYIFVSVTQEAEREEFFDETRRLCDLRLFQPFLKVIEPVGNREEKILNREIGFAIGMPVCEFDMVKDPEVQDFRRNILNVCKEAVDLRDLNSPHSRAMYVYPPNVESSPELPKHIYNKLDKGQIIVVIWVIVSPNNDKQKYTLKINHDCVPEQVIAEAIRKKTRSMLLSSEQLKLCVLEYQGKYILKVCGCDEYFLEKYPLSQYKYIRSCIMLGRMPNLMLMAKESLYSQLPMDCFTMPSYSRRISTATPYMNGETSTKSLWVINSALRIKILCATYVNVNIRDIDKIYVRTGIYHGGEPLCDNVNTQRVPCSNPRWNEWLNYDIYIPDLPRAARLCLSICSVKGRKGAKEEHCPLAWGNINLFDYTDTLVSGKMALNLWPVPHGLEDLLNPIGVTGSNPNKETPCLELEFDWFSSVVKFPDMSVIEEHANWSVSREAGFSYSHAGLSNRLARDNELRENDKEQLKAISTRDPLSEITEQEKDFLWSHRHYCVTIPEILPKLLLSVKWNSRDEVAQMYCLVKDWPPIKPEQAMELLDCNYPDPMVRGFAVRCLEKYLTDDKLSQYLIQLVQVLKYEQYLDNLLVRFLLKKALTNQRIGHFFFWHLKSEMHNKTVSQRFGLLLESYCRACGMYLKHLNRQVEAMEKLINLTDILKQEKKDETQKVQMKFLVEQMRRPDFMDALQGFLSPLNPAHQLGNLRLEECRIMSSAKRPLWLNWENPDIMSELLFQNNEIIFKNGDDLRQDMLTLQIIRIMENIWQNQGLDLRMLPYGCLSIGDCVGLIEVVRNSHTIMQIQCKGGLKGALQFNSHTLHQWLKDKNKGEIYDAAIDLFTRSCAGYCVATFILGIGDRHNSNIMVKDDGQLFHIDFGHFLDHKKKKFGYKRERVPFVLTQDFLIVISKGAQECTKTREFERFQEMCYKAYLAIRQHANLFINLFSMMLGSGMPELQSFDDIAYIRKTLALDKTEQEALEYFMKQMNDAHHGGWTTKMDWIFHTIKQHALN

Homo sapiens [3] = species: Homo sapiens; assay: (§1) Selectivity ratio of IC50 for PI3Kbeta (unknown origin) using PIP2:3PS peptide as substrate preincubated for 15 mins followed by ATP addition at Km concentration and further incubated for 120 mins by ADP-Glo assay to IC50 for PI3Kalpha (unknown origin) using PIP2:3PS peptide as substrate preincubated for 15 mins followed by ATP addition at Km concentration and further incubated for 150 mins by ADP-Glo assay
Homo sapiens [4] = species: Homo sapiens; assay: as §1, with “PI3Kdelta” for “PI3Kbeta”
Homo sapiens [5] = species: Homo sapiens; assay: as §1, with “PI3Kgamma” for “PI3Kbeta”
[6] = Cmax in BALB/c mouse at 10 mg/kg, po by HPLC analysis; assay type: ADME, organism-based; design: dose 10 mg/kg, route oral; settings: in vivo
[7] = Dose normalized AUC (0 to last) in BALB/c mouse at 10 mg/kg, po by HPLC analysis; assay type: ADME, organism-based; settings: in vivo

Compound | IC50 [1] [nM] | IC50 [2] [nM] | Ratio IC50 (Homo sapiens [3]) | Ratio IC50 (Homo sapiens [4]) | Ratio IC50 (Homo sapiens [5]) | Cmax [6] [µM] | AUClast/dose [7]
CNC(=O)[C@H](C)Cn1cnc2ccc(-c3cnc(OC(C)C)c(NS(=O)(=O)c4ccc(F)cc4Cl)c3)cc2c1=O | 387 |  |  |  |  |  | 
COCCNC(=O)[C@H](C)Cn1cnc2ccc(-c3cnc(OC)c(NS(=O)(=O)c4ccc(F)cc4Cl)c3)cc2c1=O | 72 | 4.9 | 229 | 6.06 | 9.22 | 9.13 | 723 nM.hr/(mg/kg)
CNC(=O)[C@H](C)Cn1cnc2ccc(-c3cnc(N(C)C)c(NS(=O)(=O)c4ccc(F)cc4Cl)c3)cc2c1=O |  | 8.4 | 59.5 |  |  |  | 
CNC(=O)[C@H](C)Cn1cnc2ccc(-c3cnc(C)c(NS(=O)(=O)c4ccc(F)cc4Cl)c3)cc2c1=O | 397 | 3 | 406 | 17 | 21 |  | 
CNC(=O)[C@H](C)Cn1cnc2ccc(-c3cnc(COC)c(NS(=O)(=O)c4ccc(F)cc4Cl)c3)cc2c1=O | > 1000 | > 1000 |  |  |  |  | 
CCC(CC)NC(=O)[C@H](C)Cn1cnc2ccc(-c3cnc(OC)c(NS(=O)(=O)c4ccc(F)cc4Cl)c3)cc2c1=O | 373 | 19.6 | 259 | 3.11 | 7.92 |  | 
CCc1ncc(-c2ccc3ncn(C[C@@H](C)C(=O)NC)c(=O)c3c2)cc1NS(=O)(=O)c1ccc(F)cc1Cl | 347 | 6 | 309 | 13.8 | 14.4 |  | 
CNC(=O)[C@H](C)Cn1cnc2ccc(-c3cnc(OC)c(NS(=O)(=O)c4cccnc4)c3)cc2c1=O | > 1000 |  |  |  |  |  | 
COc1ncc(-c2ccc3ncn(CC(C(N)=O)C(C)C)c(=O)c3c2)cc1NS(=O)(=O)c1ccc(F)cc1Cl (racemic) | 125 |  | 32.6 |  |  |  | 
COc1ncc(-c2ccc3ncn(CCCC(N)=O)c(=O)c3c2)cc1NS(=O)(=O)c1ccc(F)cc1Cl | 9.43 | 1.1 | 30 | 1.91 |  |  | 
CNC(=O)[C@H](C)Cn1cnc2ccc(-c3cnc(OC)c(NS(=O)(=O)c4cc(C(F)(F)F)cc(C(F)(F)F)c4)c3)cc2c1=O |  | 20.8 | 109 | 19.4 | 17.3 |  | 
COc1ncc(-c2ccc3ncn(C[C@@H](C)C(=O)NC4CCC4)c(=O)c3c2)cc1NS(=O)(=O)c1ccc(F)cc1Cl | 80.4 | 8.4 | 186 | 2.12 | 3.27 | 4.73 | 302 nM·h
COc1ncc(-c2ccc3ncn(C[C@@H](C)C(=O)N4CCOCC4)c(=O)c3c2)cc1NS(=O)(=O)c1ccc(F)cc1Cl |  | 11.5 | 18.3 | 0.38 | 0.71 |  | 
COc1ncc(-c2ccc3ncn(C[C@@H](C)C(=O)NCC(C)C)c(=O)c3c2)cc1NS(=O)(=O)c1ccc(F)cc1Cl | 81.1 | 8 | 424 | 3.03 | 6.38 |  | 
CCC(Cn1cnc2ccc(-c3cnc(OC)c(NS(=O)(=O)c4ccc(F)cc4Cl)c3)cc2c1=O)C(N)=O (racemic) | 52.3 |  | 19.3 |  |  |  | 
COc1ncc(-c2ccc3ncn(C[C@@H](C)C(=O)NCCF)c(=O)c3c2)cc1NS(=O)(=O)c1ccc(F)cc1Cl | 67.4 | 2.5 | 162 | 7.61 | 7.41 |  | 
CNC(=O)[C@H](C)Cn1cnc2ccc(-c3cnc(OC)c(NS(=O)(=O)c4ccc(Cl)c(Cl)c4)c3)cc2c1=O |  | 10 | 6.62 |  |  |  | 
CCNC(=O)[C@H](C)Cn1cnc2ccc(-c3cnc(OC)c(NS(=O)(=O)c4ccc(F)cc4Cl)c3)cc2c1=O | 40.5 | 3.5 | 187 | 5.63 | 6.28 |  | 
COc1ncc(-c2ccc3ncn(C[C@@H](C)C(=O)NC4CC4(F)F)c(=O)c3c2)cc1NS(=O)(=O)c1ccc(F)cc1Cl (some centres undefined) |  | 6.2 | 116 |  |  |  | 
CNC(=O)C(C)Cn1cnc2ccc(-c3cnc(OC(F)(F)F)c(NS(=O)(=O)c4ccc(F)cc4Cl)c3)cc2c1=O (racemic) | > 1000 |  | 94.9 |  |  |  | 
COc1ncc(-c2ccc3ncn(C[C@@H](C)C(=O)N(C)C(C)C)c(=O)c3c2)cc1NS(=O)(=O)c1ccc(F)cc1Cl |  | 19.6 | 16.6 | 0.78 | 1.06 |  | 

Compound | IC50 [1] [nM] | IC50 [2] [nM] | Ratio IC50 (Homo sapiens [3]) | Ratio IC50 (Homo sapiens [4]) | Ratio IC50 (Homo sapiens [5]) | Cmax [6] [µM] | AUClast/dose [7]
CNC(=O)[C@H](C)Cn1cnc2ccc(-c3cnc(OC4CC4)c(NS(=O)(=O)c4ccc(F)cc4Cl)c3)cc2c1=O | 55.3 |  |  |  |  |  | 
CCN(CC)C(=O)[C@H](C)Cn1cnc2ccc(-c3cnc(OC)c(NS(=O)(=O)c4ccc(F)cc4Cl)c3)cc2c1=O |  | 25.8 | 5.97 | 0.63 | 1.04 |  | 
CNC(=O)[C@H](C)Cn1cnc2ccc(-c3cnc(OC)c(NS(=O)(=O)c4c(C)noc4C)c3)cc2c1=O |  | 4.3 | 146 | 4.52 | 10 |  | 
COc1ncc(-c2ccc3ncn(CCC(N)=O)c(=O)c3c2)cc1NS(=O)(=O)c1ccc(F)cc1Cl | 16.8 | 1.2 | 59 | 3.34 | 3.94 |  | 
CNC(=O)[C@H](C)Cn1cnc2ccc(-c3cnc(N)c(NS(=O)(=O)c4ccc(F)cc4Cl)c3)cc2c1=O | > 1000 | 19.3 | 283 |  |  |  | 
COc1ncc(-c2ccc3ncn(C[C@@H](C)C(=O)NCC(F)(F)F)c(=O)c3c2)cc1NS(=O)(=O)c1ccc(F)cc1Cl | 56.1 | 5.5 | 107 | 3.41 | 9.87 |  | 
COc1ncc(-c2ccc3ncn(CC4(C(N)=O)CC4)c(=O)c3c2)cc1NS(=O)(=O)c1ccc(F)cc1Cl | 39.9 |  | 14.4 | 0.35 | 3.61 |  | 
CNC(=O)[C@H](C)Cn1cnc2ccc(-c3cnc(OC)c(NS(=O)(=O)c4ccc(F)cc4)c3)cc2c1=O | 19 | 3.4 | 106 | 9.16 | 12.3 | 5 | 1370 nM·h
CNC(=O)C(C)Cn1cnc2ccc(-c3cnc(C(F)(F)F)c(NS(=O)(=O)c4ccc(F)cc4Cl)c3)cc2c1=O (racemic) | 972 | 0.6 | 196 |  |  |  | 
COc1ncc(-c2ccc3ncn(C[C@@H](C)C(=O)NC4CC4)c(=O)c3c2)cc1NS(=O)(=O)c1ccc(F)cc1Cl | 170 | 2.7 | 224 | 2.61 | 5.44 |  | 
COc1ncc(-c2ccc3ncn(C[C@@H](C)C(=O)NC(C)C)c(=O)c3c2)cc1NS(=O)(=O)c1ccc(F)cc1Cl | 61.5 | 6.9 | 107 | 3.41 | 9.87 |  | 
CNC(=O)[C@H](C)Cn1cnc2ccc(-c3cnc(OC)c(NS(=O)(=O)c4sc(C)nc4C)c3)cc2c1=O | 10.9 | 0.5 | 115 | 2.08 | 11.7 |  | 
CNC(=O)[C@H](C)Cn1cnc2ccc(-c3cnc(OC)c(NS(=O)(=O)c4sccc4C)c3)cc2c1=O |  | 4.1 | 43.1 |  |  |  | 
COc1ncc(-c2ccc3ncn(C[C@@H](C)C(=O)NC4COC4)c(=O)c3c2)cc1NS(=O)(=O)c1ccc(F)cc1Cl | 190 | 2.1 | 262 |  |  |  | 
CNC(=O)[C@@H](C)Cn1cnc2ccc(-c3cnc(OC)c(NS(=O)(=O)c4ccc(F)cc4Cl)c3)cc2c1=O |  | 2.3 |  |  |  |  | 
COc1ncc(-c2ccc3ncn(C[C@@H](C)C(=O)NCCO)c(=O)c3c2)cc1NS(=O)(=O)c1ccc(F)cc1Cl | 339 | 1.7 | 151 | 6.8 | 6.34 |  | 
COc1ncc(-c2ccc3ncn(CC(F)(F)C(N)=O)c(=O)c3c2)cc1NS(=O)(=O)c1ccc(F)cc1Cl |  | 2.7 | 46.6 | 2.69 | 3.15 |  | 
CCOc1ncc(-c2ccc3ncn(C[C@@H](C)C(=O)NC)c(=O)c3c2)cc1NS(=O)(=O)c1ccc(F)cc1Cl | 116 | 13.7 | 153 |  |  |  | 
CNC(=O)[C@H](C)Cn1cnc2ccc(-c3cnc(CO)c(NS(=O)(=O)c4ccc(F)cc4Cl)c3)cc2c1=O | > 1000 | 30 | > 334 | 17.9 | 12.5 |  | 
COc1ncc(-c2ccc3ncn(CC(N)C(N)=O)c(=O)c3c2)cc1NS(=O)(=O)c1ccc(F)cc1Cl (racemic) | 134 |  | 33.9 | 4.75 | 7.39 |  | 
COc1ncc(-c2ccc3ncc(NC(=O)N4CCC[C@H]4C(N)=O)c(=O)n3c2)cc1NS(=O)(=O)c1ccc(F)cc1Cl | 188 | 0.5 | 130 | 3.4 | 7.4 |  | 

Source: ChEMBL document CHEMBL4619796, “Discovery of 3-Quinazolin-4(3H)-on-3-yl-2,N-dimethylpropanamides as Orally Active and Selective PI3Kα Inhibitors” (ACS Med Chem Lett, 2020)
